Assay results from patent US20180289656A1, “COMPOSITIONS AND METHODS TO TREAT URINARY TRACT INFECTIONS” (Hennepin Life Sciences, LLC, priority 2015, published 2018).

Key:
Assay type in all cases: cell-based
S. aureus = assay: bactericidal activity against 54 strains of S. aureus
Description: 5% w/v GML nonaqueous gel is bactericidal for 54 strains of S. aureus, including highly antibiotic resistant organisms and multiple clonal groups. GML is antimicrobial on contact, killing the organisms in only a few minutes. The estimated chance of S. aureus developing resistance to GML is […]; thus resistance is highly unlikely.

S. aureus biofilms = assay: biofilm formation by crystal violet staining, absorbance at 595 nm; conditions: 10 fold lower GML concentrations than necessary to inhibit bacterial growth
Experimental: (§1) To directly assess the effect of GML on the formation of biofilms, 96 well plastic microtiter plates were inoculated with approximately 10^6/mL of one of three strains of S. aureus (MN8, a methicillin sensitive strain; MNWH, a methicillin resistant strain; or MW2, a methicillin resistant strain), or with non-typable Haemophilus influenzae. Wells were cultured stationary at 37° C. for 24 and 48. As a control, in one set of three wells for each microbe, the wells were agitated 3 times by pipetting up and down. The bactericidal activity of GML was determined by measuring CFU/mL in supernatants. After removal of supernatants, wells were washed three times with PBS to remove unbound cells, and were then treated with crystal violet for 30 minutes. Wells were again washed three times with PBS to remove unbound crystal violet. Finally, wells were treated with ethanol to solubilize biofilm associated crystal violet. Absorbance at 595 nm was determined by an ELISA reader to measure biofilm formation.

[1] = system: S. aureus (MN8, MNWH, MW2); assay: bactericidal activity / growth measured as CFU/mL in supernatants of microtiter plate cultures; conditions: GML at 500 μg/mL; all three S. aureus strains (MN8, MNWH, MW2); both 24 and 48 hours
Experimental: as §1

With Glycerol monolaurate [GML] the “time to kill the organisms (antimicrobial on contact)” value (S. aureus) was “a few minutes”, the “biofilm formation (crystal violet staining of retained biofilm material)” value (S. aureus biofilms) was “significantly inhibited” and the “growth as measured by CFU/mL” value [1] was “completely inhibited”.
